Target: T1, HDAC6 enzyme (Homo sapiens, UniProt Q9UBN7)
T1 construct: prepared by transducing full length HDAC1 and HDAC6 genes into Sf-9 insect cells; GST; purchased SignalChem; host or cells: Sf-9 insect cells
T1 sequence (Q9UBN7 1-1215): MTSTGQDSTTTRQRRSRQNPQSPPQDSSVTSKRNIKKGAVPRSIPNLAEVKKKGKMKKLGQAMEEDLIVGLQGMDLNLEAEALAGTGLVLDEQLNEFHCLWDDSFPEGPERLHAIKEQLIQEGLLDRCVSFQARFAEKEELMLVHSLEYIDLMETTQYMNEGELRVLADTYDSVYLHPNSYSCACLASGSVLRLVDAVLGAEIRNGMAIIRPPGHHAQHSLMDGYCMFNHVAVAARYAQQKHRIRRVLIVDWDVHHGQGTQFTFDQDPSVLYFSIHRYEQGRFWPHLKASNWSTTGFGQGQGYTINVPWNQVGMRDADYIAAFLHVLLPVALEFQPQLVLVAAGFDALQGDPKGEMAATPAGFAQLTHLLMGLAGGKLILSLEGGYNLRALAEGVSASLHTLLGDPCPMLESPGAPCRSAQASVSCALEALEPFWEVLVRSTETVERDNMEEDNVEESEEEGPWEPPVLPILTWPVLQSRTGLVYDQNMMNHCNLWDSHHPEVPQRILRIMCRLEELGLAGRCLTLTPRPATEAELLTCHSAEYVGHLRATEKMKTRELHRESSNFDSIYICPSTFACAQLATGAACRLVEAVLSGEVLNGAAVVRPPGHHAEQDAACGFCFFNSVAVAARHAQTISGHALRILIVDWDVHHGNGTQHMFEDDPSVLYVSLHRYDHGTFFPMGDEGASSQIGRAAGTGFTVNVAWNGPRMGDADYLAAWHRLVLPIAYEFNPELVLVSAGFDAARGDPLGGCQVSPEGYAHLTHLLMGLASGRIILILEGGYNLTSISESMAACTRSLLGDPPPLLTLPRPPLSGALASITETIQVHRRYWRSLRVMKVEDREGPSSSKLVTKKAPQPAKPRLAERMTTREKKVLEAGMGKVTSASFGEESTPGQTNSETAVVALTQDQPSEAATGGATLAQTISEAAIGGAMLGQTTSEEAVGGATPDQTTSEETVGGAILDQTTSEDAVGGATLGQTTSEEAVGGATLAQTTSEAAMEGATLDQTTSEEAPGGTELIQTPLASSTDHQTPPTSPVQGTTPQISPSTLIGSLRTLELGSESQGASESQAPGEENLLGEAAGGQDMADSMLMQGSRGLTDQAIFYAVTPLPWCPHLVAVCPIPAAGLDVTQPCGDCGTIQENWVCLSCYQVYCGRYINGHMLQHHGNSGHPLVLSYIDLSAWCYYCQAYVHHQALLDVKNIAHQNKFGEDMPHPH
Assay: HDAC6 enzyme inhibitory assay (HDAC-Glo I/II Assay kit)
Type: biochemical
Conditions: 1 μM test compound; read-out: HDAC6 inhibitory rate (%) (1 μM)
Method: HDAC1 enzyme and HDAC6 enzyme each prepared by transducing full length HDAC1 and HDAC6 genes into Sf-9 insect cells and purifying by GST affinity column were purchased from SignalChem. Using these enzymes, HDAC1 and/or HDAC6 enzyme inhibitory activities of the compound of the present invention were evaluated. Enzymes were used after preserved at −70° C. HDAC1 or HDAC6 enzyme inhibitory activity of the compound of the present invention was measured using HDAC-Glo™ I/II Assay kit (Promega) according to the following experimental method. The test compound diluted with assay buffer (24 mM Tris-HCl (pH 7.5), 1 mM MgCl2, 0.35 mM KCl, 135 mM NaCl, 0.6 mM Glutathione, 0.01% Tween-20) was added to a 384-well plate by each 2 μL. Then, HDAC1 or HDAC6 enzyme solution diluted with assay buffer was added thereto by each 4 μL, and the plate was incubated at room temperature for 60 min. After incubated, HDAC substrate-Developer solution prepared according to Promega protocol attached to the assay kit was added to the 384-well plate by each 2 μL, and the enzyme reaction was started. After reacting at room temperature for 20 min, luminescence level was measured using plate reader Envision (PerkinElmer). The inhibitory activity of each compound was calculated as a relative activity value when luminescence level in wells without enzyme is considered as 100% inhibition.

Compound | inhibition at 1 µM
O=C(NC[C@H]1COCCN1C(=O)C1CCOC1)c1ccc(-c2noc(C(F)(F)F)n2)cc1 (stereo partly drawn) [Example 79, N-(((3S)-4-(tetrahydrofuran-3-ylcarbonyl)morpholin-3-yl)methyl)-4-(5-(trifluoromethyl)-1,2,4-oxadiazol-3-yl)benzamide] | 94%
O=C(NC[C@H]1COCCN1C(=O)C1CCOCC1)c1ccc(-c2noc(C(F)(F)F)n2)cc1 [Example 81, N-(((3S)-4-(tetrahydro-2H-pyran-4-ylcarbonyl)morpholin-3-yl)methyl)-4-(5-(trifluoromethyl)-1,2,4-oxadiazol-3-yl)benzamide] | 94%
Cc1cc(C(=O)N2CCOC[C@H]2CNC(=O)c2ccc(-c3noc(C(F)(F)F)n3)cc2)cc(O)n1 [Example 122, N-(((3R)-4-(2-hydroxy-6-methylisonicotinoyl)morpholin-3-yl)methyl)-4-(5-(trifluoromethyl)-1,2,4-oxadiazol-3-yl)benzamide] | 36%
O=C(NC[C@@H]1COCCN1C(=O)c1ccc(OCC(F)(F)F)nc1)c1ccc(-c2noc(C(F)(F)F)n2)cc1 [Example 123, N-(((3R)-4-((6-(2,2,2-trifluoroethoxy)pyridin-3-yl)carbonyl)morpholin-3-yl)methyl)-4-(5-(trifluoromethyl)-1,2,4-oxadiazol-3-yl)benzamide] | 95%
O=C(NC[C@@H]1COCCN1C(=O)C1CCc2ccccc2O1)c1ccc(-c2noc(C(F)(F)F)n2)cc1 (stereo partly drawn) [Example 124, N-(((3R)-4-(3,4-dihydro-2H-chromen-2-ylcarbonyl)morpholin-3-yl)methyl)-4-(5-(trifluoromethyl)-1,2,4-oxadiazol-3-yl)benzamide] | 90%
O=C(NC[C@@H]1COCCN1C(=O)c1cc2ncccn2n1)c1ccc(-c2noc(C(F)(F)F)n2)cc1 [Example 126, N-(((3R)-4-(pyrazolo[1,5-a]pyrimidin-2-ylcarbonyl)morpholin-3-yl)methyl)-4-(5-(trifluoromethyl)-1,2,4-oxadiazol-3-yl)benzamide] | 88%
N#CC1(C(=O)N2CCOC[C@H]2CNC(=O)c2ccc(-c3noc(C(F)(F)F)n3)cc2)CC1 [Example 127, N-(((3R)-4-((1-cyanocyclopropyl)carbonyl)morpholin-3-yl)methyl)-4-(5-(trifluoromethyl)-1,2,4-oxadiazol-3-yl)benzamide] | 90%
O=C(NC[C@@H]1COCCN1C(=O)C(c1ccccc1)c1ccccc1)c1ccc(-c2noc(C(F)(F)F)n2)cc1 [Example 129, N-(((3R)-4-(diphenylacetyl)morpholin-3-yl)methyl)-4-(5-(trifluoromethyl)-1,2,4-oxadiazol-3-yl)benzamide] | 53%
O=C(NC[C@@H]1COCCN1C(=O)COc1ccccc1)c1ccc(-c2noc(C(F)(F)F)n2)cc1 [Example 130, N-(((3R)-4-(phenoxyacetyl)morpholin-3-yl)methyl)-4-(5-(trifluoromethyl)-1,2,4-oxadiazol-3-yl)benzamide] | 94%
Cc1oncc1C(=O)N1CCOC[C@H]1CNC(=O)c1ccc(-c2noc(C(F)(F)F)n2)cc1 [Example 131, N-(((3R)-4-((5-methyl-1,2-oxazol-4-yl)carbonyl)morpholin-3-yl)methyl)-4-(5-(trifluoromethyl)-1,2,4-oxadiazol-3-yl)benzamide] | 87%
Cc1cc(C(=O)N2CCOC[C@H]2CNC(=O)c2ccc(-c3noc(C(F)(F)F)n3)cc2)n(C)n1 [Example 135, N-(((3R)-4-((1,3-dimethyl-1H-pyrazol-5-yl)carbonyl)morpholin-3-yl)methyl)-4-(5-(trifluoromethyl)-1,2,4-oxadiazol-3-yl)benzamide] | 91%
Cn1nc(C(F)(F)F)cc1C(=O)N1CCOC[C@H]1CNC(=O)c1ccc(-c2noc(C(F)(F)F)n2)cc1 [Example 136, N-(((3R)-4-((1-methyl-3-(trifluoromethyl)-1H-pyrazol-5-yl)carbonyl)morpholin-3-yl)methyl)-4-(5-(trifluoromethyl)-1,2,4-oxadiazol-3-yl)benzamide] | 92%
Cn1ccc(C(=O)N2CCOC[C@H]2CNC(=O)c2ccc(-c3noc(C(F)(F)F)n3)cc2)n1 [Example 137, N-(((3R)-4-((1-methyl-1H-pyrazol-3-yl)carbonyl)morpholin-3-yl)methyl)-4-(5-(trifluoromethyl)-1,2,4-oxadiazol-3-yl)benzamide] | 93%
Cn1cc(C(=O)N2CCOC[C@H]2CNC(=O)c2ccc(-c3noc(C(F)(F)F)n3)cc2)cn1 [Example 138, N-(((3R)-4-((1-methyl-1H-pyrazol-4-yl)carbonyl)morpholin-3-yl)methyl)-4-(5-(trifluoromethyl)-1,2,4-oxadiazol-3-yl)benzamide] | 85%
Cc1nn(C)c(C)c1C(=O)N1CCOC[C@H]1CNC(=O)c1ccc(-c2noc(C(F)(F)F)n2)cc1 [Example 139, 4-(5-(trifluoromethyl)-1,2,4-oxadiazol-3-yl)-N-(((3R)-4-((1,3,5-trimethyl-1H-pyrazol-4-yl)carbonyl)morpholin-3-yl)methyl)benzamide] | 63%
Cc1nnsc1C(=O)N1CCOC[C@H]1CNC(=O)c1ccc(-c2noc(C(F)(F)F)n2)cc1 [Example 140, N-(((3R)-4-((4-methyl-1,2,3-thiadiazol-5-yl)carbonyl)morpholin-3-yl)methyl)-4-(5-(trifluoromethyl)-1,2,4-oxadiazol-3-yl)benzamide] | 92%
Cc1ncsc1C(=O)N1CCOC[C@H]1CNC(=O)c1ccc(-c2noc(C(F)(F)F)n2)cc1 [Example 141, N-(((3R)-4-((4-methyl-1,3-thiazol-5-yl)carbonyl)morpholin-3-yl)methyl)-4-(5-(trifluoromethyl)-1,2,4-oxadiazol-3-yl)benzamide] | 89%
O=C(NC[C@@H]1COCCN1C(=O)c1cc[nH]n1)c1ccc(-c2noc(C(F)(F)F)n2)cc1 [Example 143, N-(((3R)-4-(1H-pyrazol-3-ylcarbonyl)morpholin-3-yl)methyl)-4-(5-(trifluoromethyl)-1,2,4-oxadiazol-3-yl)benzamide] | 93%
Cc1ccsc1C(=O)N1CCOC[C@H]1CNC(=O)c1ccc(-c2noc(C(F)(F)F)n2)cc1 [Example 146, N-(((3R)-4-((3-methyl-2-thienyl)carbonyl)morpholin-3-yl)methyl)-4-(5-(trifluoromethyl)-1,2,4-oxadiazol-3-yl)benzamide] | 94%
O=C(NC[C@@H]1COCCN1C(=O)C1CCCO1)c1ccc(-c2noc(C(F)(F)F)n2)cc1 (stereo partly drawn) [Example 150, N-(((3R)-4-(tetrahydrofuran-2-ylcarbonyl)morpholin-3-yl)methyl)-4-(5-(trifluoromethyl)-1,2,4-oxadiazol-3-yl)benzamide] | 90%
O=C(NC[C@@H]1COCCN1C(=O)C1CCOC1)c1ccc(-c2noc(C(F)(F)F)n2)cc1 (stereo partly drawn) [Example 151, N-(((3R)-4-(tetrahydrofuran-3-ylcarbonyl)morpholin-3-yl)methyl)-4-(5-(trifluoromethyl)-1,2,4-oxadiazol-3-yl)benzamide] | 90%
Cn1nccc1C(=O)N1CCOC[C@H]1CNC(=O)c1ccc(-c2noc(C(F)(F)F)n2)cc1 [Example 154, N-(((3R)-4-((1-methyl-1H-pyrazol-5-yl)carbonyl)morpholin-3-yl)methyl)-4-(5-(trifluoromethyl)-1,2,4-oxadiazol-3-yl)benzamide] | 89%
